{
  "source": "patent US20110263454A1",
  "about": "“Methods of Identifying Functional Characteristics of Promoters, Transcription Modifying Proteins and Transcription Modulating Agents” (Salk Institute for Biological Studies, priority 2008, published 2011)",
  "key": {"pre-adipocytes": {"tested_on": "pre-adipocytes", "details": "treatment of pre-adipocytes; Hutley 2004, Newell 2006; cited from earlier work"}, "TRAP expression": {"tested_on": "TRAP expression", "details": "human peripheral mononuclear cells; Reddy 1996; cited from earlier work"}, "[1]": {"tested_on": "FGF1A mRNA in white adipose tissue (WAT)", "test": "FGF1A mRNA in white adipose tissue after PPARγ ligand treatment", "assay_type": "in vivo", "details": "fed mice, oral 5 mg/kg for 3 days", "protocol": "To test this hypothesis the expression of FGF1A in response to feeding, fasting and PPARγ ligand treatment was determined (FIG. 47, left panel)."}},
  "data": [
    {"compound": "recombinant FGF1: recombinant FGF1, fibroblast growth factor polypeptide", "values": [
      {"measurement": "effect on pre-adipocytes", "setting": "pre-adipocytes", "value": "increased proliferation and adipogenesis"}
    ]},
    {"compound": "ferric protoporphyrin IX [hemin]", "values": [
      {"measurement": "TRAP expression at the transcriptional level", "setting": "TRAP expression", "value": "inhibited"}
    ]},
    {"compound": "CN(CCOc1ccc(CC2SC(=O)NC2=O)cc1)c1ccccn1", "note": "(stereo not drawn) [BRL, BRL49653 (Rosiglitazone)]", "values": [
      {"measurement": "mRNA levels of FGF1A", "setting": "[1]", "value": "significantly increased"}
    ]}
  ]
}
